Targets include CK1e (Homo sapiens, UniProt P49674); CaMK1g (Homo sapiens, UniProt Q96NX5); JNK2 (Homo sapiens, UniProt P45984); DAPK3 (Homo sapiens, UniProt O43293); FGFR2 (Homo sapiens, UniProt P21802); LOK (Homo sapiens, UniProt O94804); PAK4 (Homo sapiens, UniProt O96013); CK2a2 (Homo sapiens, UniProt P19784); MAPKAPK2 (Homo sapiens, UniProt P49137); CHK2 (Homo sapiens, UniProt O96017); CaMK2d (Homo sapiens, UniProt Q13557); p38a (Homo sapiens, UniProt Q16539); FES (Homo sapiens, UniProt P07332).

Common to all, as to details: binder
Another assay has as its target T1, PHKG2 (Homo sapiens, UniProt P15735).
T1 sequence (P15735 1-406): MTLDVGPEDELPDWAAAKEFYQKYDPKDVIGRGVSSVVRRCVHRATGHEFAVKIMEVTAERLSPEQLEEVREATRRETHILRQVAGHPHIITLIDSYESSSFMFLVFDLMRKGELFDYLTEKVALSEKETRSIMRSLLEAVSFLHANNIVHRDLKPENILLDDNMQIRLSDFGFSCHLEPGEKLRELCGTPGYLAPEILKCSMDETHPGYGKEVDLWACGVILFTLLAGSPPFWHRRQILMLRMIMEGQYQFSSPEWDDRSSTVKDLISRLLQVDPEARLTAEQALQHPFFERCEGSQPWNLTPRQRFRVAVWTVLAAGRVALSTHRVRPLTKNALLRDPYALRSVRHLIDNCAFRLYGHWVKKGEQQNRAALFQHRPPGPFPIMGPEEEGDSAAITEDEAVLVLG

Another assay concerns the target T2, NQO2A (Homo sapiens, UniProt P16083).
T2 sequence (P16083 1-231): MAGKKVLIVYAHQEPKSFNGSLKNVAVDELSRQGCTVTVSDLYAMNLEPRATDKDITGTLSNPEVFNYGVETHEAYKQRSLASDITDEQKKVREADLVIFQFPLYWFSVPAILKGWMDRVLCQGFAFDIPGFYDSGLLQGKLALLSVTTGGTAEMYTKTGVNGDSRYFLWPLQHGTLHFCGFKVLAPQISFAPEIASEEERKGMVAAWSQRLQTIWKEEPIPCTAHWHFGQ

The target in the next assay is T3, MAP2K7 (Homo sapiens, UniProt O14733).
T3 sequence (O14733 1-419): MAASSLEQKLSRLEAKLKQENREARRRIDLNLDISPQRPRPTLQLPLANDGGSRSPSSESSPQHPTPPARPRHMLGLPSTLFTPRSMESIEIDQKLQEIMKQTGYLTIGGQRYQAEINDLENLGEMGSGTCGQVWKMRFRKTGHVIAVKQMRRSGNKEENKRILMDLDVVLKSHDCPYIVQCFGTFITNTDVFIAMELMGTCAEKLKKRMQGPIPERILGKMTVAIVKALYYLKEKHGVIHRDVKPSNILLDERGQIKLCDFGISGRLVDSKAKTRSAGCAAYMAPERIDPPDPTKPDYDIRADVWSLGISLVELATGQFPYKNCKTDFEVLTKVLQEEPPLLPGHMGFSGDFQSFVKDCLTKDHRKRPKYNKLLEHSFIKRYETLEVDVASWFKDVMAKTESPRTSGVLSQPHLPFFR

A further assay has as its target T4, DRAK1 (Homo sapiens, UniProt Q9UEE5).
T4 sequence (Q9UEE5 1-414): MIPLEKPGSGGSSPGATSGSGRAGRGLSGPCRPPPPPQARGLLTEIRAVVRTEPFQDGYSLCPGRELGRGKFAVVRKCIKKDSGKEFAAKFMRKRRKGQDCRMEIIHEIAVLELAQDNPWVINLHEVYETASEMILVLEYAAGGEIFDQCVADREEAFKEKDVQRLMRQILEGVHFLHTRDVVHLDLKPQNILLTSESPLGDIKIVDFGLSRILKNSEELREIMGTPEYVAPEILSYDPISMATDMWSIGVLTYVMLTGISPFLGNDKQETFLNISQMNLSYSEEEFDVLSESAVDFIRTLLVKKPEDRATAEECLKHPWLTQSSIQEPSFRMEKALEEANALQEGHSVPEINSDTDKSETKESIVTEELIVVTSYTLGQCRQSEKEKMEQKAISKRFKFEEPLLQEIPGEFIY

Molecules are shown by their SMILES.

MAPKAPK2, sequence (P49137 whole entry): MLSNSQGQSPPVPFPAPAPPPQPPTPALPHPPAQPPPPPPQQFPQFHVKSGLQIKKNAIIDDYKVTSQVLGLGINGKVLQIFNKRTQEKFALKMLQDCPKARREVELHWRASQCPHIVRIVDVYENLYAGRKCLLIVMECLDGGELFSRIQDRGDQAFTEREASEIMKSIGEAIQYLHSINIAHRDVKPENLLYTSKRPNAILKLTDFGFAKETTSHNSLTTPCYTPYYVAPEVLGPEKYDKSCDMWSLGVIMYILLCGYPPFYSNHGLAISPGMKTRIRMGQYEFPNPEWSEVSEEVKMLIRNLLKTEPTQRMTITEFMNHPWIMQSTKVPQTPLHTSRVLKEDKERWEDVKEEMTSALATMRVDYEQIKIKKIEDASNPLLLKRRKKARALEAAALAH
p38a, sequence (Q16539 whole entry): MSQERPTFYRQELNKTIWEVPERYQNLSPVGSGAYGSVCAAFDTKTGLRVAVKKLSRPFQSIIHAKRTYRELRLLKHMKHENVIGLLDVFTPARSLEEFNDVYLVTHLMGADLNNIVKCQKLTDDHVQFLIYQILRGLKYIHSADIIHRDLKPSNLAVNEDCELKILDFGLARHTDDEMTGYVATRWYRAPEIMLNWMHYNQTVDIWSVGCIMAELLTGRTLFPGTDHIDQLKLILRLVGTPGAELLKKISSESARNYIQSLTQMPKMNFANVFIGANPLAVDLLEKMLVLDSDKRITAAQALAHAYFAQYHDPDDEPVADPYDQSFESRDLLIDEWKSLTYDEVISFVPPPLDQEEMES
CaMK1g, sequence (Q96NX5 whole entry): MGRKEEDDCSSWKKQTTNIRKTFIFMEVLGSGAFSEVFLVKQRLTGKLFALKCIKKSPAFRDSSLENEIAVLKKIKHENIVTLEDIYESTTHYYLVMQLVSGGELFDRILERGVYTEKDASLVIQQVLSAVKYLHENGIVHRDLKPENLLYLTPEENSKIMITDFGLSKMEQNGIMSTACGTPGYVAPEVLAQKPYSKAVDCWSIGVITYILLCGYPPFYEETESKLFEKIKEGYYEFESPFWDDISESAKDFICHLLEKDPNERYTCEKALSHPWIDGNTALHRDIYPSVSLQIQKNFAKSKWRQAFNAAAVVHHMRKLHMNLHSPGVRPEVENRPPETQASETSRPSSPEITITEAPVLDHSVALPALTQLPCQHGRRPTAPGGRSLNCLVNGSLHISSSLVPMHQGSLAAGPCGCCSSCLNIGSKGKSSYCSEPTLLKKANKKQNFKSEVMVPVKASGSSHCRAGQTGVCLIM
CK1e, sequence (P49674 whole entry): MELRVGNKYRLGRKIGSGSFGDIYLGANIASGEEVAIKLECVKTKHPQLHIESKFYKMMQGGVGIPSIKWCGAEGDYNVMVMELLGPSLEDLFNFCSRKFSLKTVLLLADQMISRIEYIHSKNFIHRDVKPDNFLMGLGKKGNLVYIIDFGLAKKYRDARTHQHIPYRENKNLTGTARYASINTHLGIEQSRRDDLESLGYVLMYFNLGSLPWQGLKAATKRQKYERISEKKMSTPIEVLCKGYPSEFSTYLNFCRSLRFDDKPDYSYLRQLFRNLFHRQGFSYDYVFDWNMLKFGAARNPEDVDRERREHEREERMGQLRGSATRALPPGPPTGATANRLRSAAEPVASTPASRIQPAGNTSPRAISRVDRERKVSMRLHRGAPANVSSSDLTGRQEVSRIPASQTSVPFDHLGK
CHK2, sequence (O96017 whole entry): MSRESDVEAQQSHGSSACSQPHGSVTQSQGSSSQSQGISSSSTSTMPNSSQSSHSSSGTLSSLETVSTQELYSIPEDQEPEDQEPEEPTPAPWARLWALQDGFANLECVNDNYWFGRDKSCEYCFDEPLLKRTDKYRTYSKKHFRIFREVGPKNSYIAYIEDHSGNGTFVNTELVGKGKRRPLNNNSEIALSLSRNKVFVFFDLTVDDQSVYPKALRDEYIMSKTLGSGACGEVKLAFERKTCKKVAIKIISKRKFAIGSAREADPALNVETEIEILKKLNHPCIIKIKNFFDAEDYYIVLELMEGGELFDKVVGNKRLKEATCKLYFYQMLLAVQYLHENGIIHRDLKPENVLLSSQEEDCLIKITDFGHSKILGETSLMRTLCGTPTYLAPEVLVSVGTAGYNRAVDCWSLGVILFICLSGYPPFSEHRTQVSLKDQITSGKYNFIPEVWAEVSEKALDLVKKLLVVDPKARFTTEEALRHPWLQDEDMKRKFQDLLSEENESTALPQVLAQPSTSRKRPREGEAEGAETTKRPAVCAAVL
LOK, sequence (O94804 whole entry): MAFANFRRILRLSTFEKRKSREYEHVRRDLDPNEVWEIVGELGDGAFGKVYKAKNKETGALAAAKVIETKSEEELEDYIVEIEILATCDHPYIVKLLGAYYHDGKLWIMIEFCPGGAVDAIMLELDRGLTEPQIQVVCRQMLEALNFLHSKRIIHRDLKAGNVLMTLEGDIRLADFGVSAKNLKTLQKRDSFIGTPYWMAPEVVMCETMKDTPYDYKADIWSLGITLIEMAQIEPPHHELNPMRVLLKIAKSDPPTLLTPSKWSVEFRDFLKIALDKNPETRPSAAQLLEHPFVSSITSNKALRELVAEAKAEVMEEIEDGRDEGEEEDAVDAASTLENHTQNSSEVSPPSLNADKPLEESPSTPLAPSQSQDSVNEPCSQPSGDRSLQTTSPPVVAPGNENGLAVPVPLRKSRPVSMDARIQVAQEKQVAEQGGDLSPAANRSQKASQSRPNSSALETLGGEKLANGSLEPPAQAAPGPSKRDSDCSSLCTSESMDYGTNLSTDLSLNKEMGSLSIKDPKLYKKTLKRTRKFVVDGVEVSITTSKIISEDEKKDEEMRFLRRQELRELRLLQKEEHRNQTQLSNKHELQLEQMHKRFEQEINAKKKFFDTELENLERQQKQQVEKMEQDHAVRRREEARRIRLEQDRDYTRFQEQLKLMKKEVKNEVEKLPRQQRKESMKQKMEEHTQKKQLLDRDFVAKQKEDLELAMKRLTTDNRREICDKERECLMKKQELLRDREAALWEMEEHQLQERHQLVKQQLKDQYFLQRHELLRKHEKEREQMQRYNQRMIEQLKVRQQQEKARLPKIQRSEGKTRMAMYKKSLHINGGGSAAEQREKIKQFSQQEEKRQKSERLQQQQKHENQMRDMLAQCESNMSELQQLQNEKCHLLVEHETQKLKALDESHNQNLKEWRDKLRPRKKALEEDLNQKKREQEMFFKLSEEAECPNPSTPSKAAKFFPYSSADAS
CaMK2d, sequence (Q13557 whole entry): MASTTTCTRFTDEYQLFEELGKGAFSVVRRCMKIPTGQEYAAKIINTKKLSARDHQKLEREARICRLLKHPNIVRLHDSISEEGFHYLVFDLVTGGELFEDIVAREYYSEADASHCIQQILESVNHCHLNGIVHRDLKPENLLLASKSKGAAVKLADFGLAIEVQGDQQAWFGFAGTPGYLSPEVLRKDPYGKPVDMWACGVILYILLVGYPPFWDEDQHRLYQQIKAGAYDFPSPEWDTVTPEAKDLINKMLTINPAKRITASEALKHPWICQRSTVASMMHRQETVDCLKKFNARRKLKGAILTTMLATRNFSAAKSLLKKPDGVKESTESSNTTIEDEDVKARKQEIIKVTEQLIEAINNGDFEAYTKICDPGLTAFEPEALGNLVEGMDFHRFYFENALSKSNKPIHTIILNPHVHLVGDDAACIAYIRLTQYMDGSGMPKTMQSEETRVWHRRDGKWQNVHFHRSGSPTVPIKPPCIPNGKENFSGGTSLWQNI
FES, sequence (P07332 whole entry): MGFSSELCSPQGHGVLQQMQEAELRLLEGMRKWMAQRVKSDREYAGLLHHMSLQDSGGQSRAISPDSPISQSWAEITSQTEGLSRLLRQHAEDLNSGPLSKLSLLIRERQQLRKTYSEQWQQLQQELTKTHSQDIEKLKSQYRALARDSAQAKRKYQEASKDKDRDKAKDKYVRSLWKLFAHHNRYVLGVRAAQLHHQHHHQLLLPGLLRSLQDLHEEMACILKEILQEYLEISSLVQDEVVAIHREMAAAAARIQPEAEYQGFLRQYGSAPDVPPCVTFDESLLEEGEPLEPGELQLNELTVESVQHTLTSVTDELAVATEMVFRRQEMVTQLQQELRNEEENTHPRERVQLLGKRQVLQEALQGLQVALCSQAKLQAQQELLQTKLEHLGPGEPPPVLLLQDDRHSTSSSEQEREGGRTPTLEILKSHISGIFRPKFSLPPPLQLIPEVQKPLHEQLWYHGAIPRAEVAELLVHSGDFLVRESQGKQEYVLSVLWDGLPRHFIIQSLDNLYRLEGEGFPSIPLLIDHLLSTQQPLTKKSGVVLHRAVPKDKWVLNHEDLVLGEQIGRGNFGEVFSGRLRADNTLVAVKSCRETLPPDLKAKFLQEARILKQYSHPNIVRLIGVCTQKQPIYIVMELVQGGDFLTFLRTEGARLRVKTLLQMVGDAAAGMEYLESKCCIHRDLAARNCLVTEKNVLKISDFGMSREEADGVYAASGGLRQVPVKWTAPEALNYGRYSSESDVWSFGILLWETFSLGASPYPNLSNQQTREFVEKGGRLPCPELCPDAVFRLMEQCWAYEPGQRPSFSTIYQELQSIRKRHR
DAPK3, sequence (O43293 whole entry): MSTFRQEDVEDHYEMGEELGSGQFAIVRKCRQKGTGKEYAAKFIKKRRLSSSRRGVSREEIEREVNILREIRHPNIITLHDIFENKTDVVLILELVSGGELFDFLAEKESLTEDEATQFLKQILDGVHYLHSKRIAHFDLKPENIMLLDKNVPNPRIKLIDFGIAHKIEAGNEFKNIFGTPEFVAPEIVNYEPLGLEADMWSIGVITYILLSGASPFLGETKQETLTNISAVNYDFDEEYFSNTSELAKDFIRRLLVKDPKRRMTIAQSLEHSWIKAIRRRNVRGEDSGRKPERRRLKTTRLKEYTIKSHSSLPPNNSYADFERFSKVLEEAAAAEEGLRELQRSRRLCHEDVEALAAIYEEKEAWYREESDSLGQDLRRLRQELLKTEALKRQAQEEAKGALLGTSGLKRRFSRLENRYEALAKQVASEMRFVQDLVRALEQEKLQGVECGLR

Take `COc1ccc(O)c(Nc2ncc3cc(-c4ccc(-c5cccc(C)n5)cc4Cl)c(=O)n(CCCCN)c3n2)c1` [compound 34, 8-(4-Aminobutyl)-6-(2-chloro-4-(6-methylpyridin-2-yl)phenyl)-2-((2-hydroxy-5-methoxy-phenyl)amino)pyrido[2,3-d]pyrimidin-7(8H)-one]: the “dTm 34” value at CK1e was 6.5 °C; on PHKG2 it was 3.5 °C; on CaMK1g, 3.8 °C; on NQO2A, -1.3 °C; at JNK2, 0.3 °C; at DAPK3, 1.5 °C. Also, the “dTm 34” value at FGFR2 was 2.0 °C; at LOK it was -0.3 °C; at PAK4, 3.0 °C; at CK2a2 it was 0.1 °C; at MAPKAPK2, -0.1 °C; on MAP2K7, 1.3 °C. In addition, the “dTm 34” value at CHK2 is 6.4 °C; on CaMK2d, -0.2 °C; on DRAK1, 2.2 °C; on p38a, 3.0 °C; on FES, 7.6 °C.
As for `Cc1cccc(-c2ccc(-c3cc4cnc(Nc5ccc(F)c(CO)c5)nc4n(CCCCN)c3=O)c(Cl)c2)n1` [compound 33, 8-(4-Aminobutyl)-6-(2-chloro-4-(6-methylpyridin-2-yl)phenyl)-2-((4-fluoro-3-(hydroxymethyl)phenyl)amino)pyrido[2,3-d]pyrimidin-7(8H)-one], the “dTm 33” value at CK1e is 6.9 °C; on PHKG2 it was 6.2 °C; on CaMK1g it was 6.7 °C; at NQO2A, 0.9 °C; at JNK2, 3.0 °C; at DAPK3, 1.9 °C. Also, the “dTm 33” value on FGFR2 was 3.3 °C; at LOK, -0.3 °C; on PAK4 it was 8.2 °C; on CK2a2, -1.2 °C; on MAPKAPK2, -0.5 °C; on MAP2K7 it was 7.7 °C. Besides, the “dTm 33” value at CHK2 is 10.4 °C; on CaMK2d, -0.2 °C; at DRAK1 it was 3.5 °C; at p38a, 4.7 °C; at FES it was 8.9 °C.
Take `COc1cc(N2CCOCC2)ccc1Nc1ncc2cc(-c3ccc(-c4cccc(C)n4)cc3Cl)c(=O)n(CCCCN)c2n1` [compound 35, 8-(4-Aminobutyl)-6-(2-chloro-4-(6-methylpyridin-2-yl)phenyl)-2-((2-methoxy-4-morpholino-phenyl)amino)pyrido[2,3-d]pyrimidin-7(8H)-one]: the “dTm 35” value was 6.6 °C at CK1e; 8.8 °C on PHKG2; 7.1 °C at CaMK1g; -2.4 °C at NQO2A; 0.1 °C on JNK2; 3.2 °C on DAPK3. For the same compound, the “dTm 35” value was 2.4 °C at FGFR2; -0.8 °C at LOK; 4.1 °C at PAK4; 0.1 °C on CK2a2; -0.6 °C on MAPKAPK2; 2.0 °C on MAP2K7. Further, the “dTm 35” value on CHK2 is 13.0 °C; at CaMK2d it was -0.9 °C; at DRAK1, 5.2 °C; at p38a, 3.8 °C; at FES, 8.3 °C.
Turning to `COc1cc(N2CCN(C)CC2)ccc1Nc1ncc2cc(-c3ccc(-c4cccc(C)n4)cc3Cl)c(=O)n(CCCCN)c2n1` [compound 36, 8-(4-Aminobutyl)-6-(2-chloro-4-(6-methylpyridin-2-yl)phenyl)-2-((2-methoxy-4-(4-methylpiperazin-1-yl)phenyl)amino)pyrido[2,3-d]pyrimidin-7(8H)-one], the “dTm 36” value is 5.1 °C on CK1e; 8.0 °C on PHKG2; 7.0 °C on CaMK1g; -1.0 °C at NQO2A; -0.3 °C on JNK2; 1.6 °C at DAPK3. Moreover, the “dTm 36” value is 2.9 °C at FGFR2; -0.4 °C on LOK; 3.9 °C on PAK4; -0.5 °C on CK2a2; -0.1 °C on MAPKAPK2; 0.0 °C at MAP2K7. Further, the “dTm 36” value on CHK2 is 12.6 °C; on CaMK2d it was -0.2 °C; on DRAK1, 6.1 °C; on p38a, 3.7 °C; at FES it was 9.0 °C.

(Values after article doi:10.1101/2023.11.24.568596v1 (biorxiv, 2023).)
